Test results as given in ChEMBL document CHEMBL4715854, “Discovery of Roblitinib (FGF401) as a Reversible-Covalent Inhibitor of the Kinase Activity of Fibroblast Growth Factor Receptor 4” (J Med Chem, 2020).

Experiments:
[1] = Permeability of the compound in human Caco-2 cells assessed as compound recovery at 10 uM measured after 2 hrs by LC/MS/MS analysis; type: ADME, cell-based; conditions: read-out: Drug recovery
[2] = Drug metabolism in rat liver microsome assessed as reduction of aldehyde group at 10 mM measured after 15 mins in presence of NADPH by LC-MS analysis; type: ADME; conditions: microsomes, 10000 µM
[3] = Drug metabolism in human liver microsome assessed as reduction of aldehyde group at 10 mM measured after 15 mins in presence of NADPH by LC-MS analysis; type: ADME; conditions: microsomes, 10000 µM

SMILES	recovery at 2 h, 10 µM [1] [%]	Drug metabolism [2]	Drug metabolism [3]
COCCNc1cc(NC(=O)N2CCCc3cc(-c4cccnc4)c(C=O)nc32)ncc1C#N	< 10	Metabolite_Detected	Metabolite_Detected
COCCOc1cc(NC(=O)N2CCCc3cc(C(F)F)c(C=O)nc32)ncc1C#N	< 10	Metabolite_Detected	Metabolite_Detected
COCCNc1cc(NC(=O)N2CCCc3cc(C4CCOCC4)c(C=O)nc32)ncc1C#N	< 10	Metabolite_Detected	Metabolite_Detected
N#Cc1cnc(NC(=O)N2CCCc3cc(CO)c(C=O)nc32)cc1O[C@H]1CCOC1	< 10	Metabolite_Detected	Metabolite_Detected
COCCNc1cc(NC(=O)N2CCCc3cc(-c4ccnn4C)c(C=O)nc32)ncc1C#N	< 10	Metabolite_Detected	Metabolite_Detected
N#Cc1ccc(NC(=O)N2CCCc3cc(CC(=O)O)c(C=O)nc32)nc1	< 10	Metabolite_Detected	Metabolite_Detected
N#Cc1ccc(NC(=O)N2CCCc3cc(CO)c(C=O)nc32)nc1	< 10	Metabolite_Detected	Metabolite_Detected
COCCNc1cc(NC(=O)N2CCCc3cc(C4CCN(C5COC5)CC4)c(C=O)nc32)ncc1C#N	< 10	Metabolite_Detected	Metabolite_Detected
N#Cc1ccc(NC(=O)N2CCCc3cc(C4CC4)c(C=O)nc32)nc1	< 10	Metabolite_Detected	Metabolite_Detected
COCCNc1cc(NC(=O)N2CCCc3cc(N4CCOCC4=O)c(C=O)nc32)ncc1C#N	< 10	Metabolite_Detected	Metabolite_Detected
COCCOc1cc(NC(=O)N2CCCc3cc(C(F)(F)F)c(C=O)nc32)ncc1C#N	< 10	Metabolite_Detected	Metabolite_Detected
N#Cc1ccc(NC(=O)N2CCCc3cc(Cl)c(C=O)nc32)nc1	< 10	Metabolite_Detected	Metabolite_Detected
CN(C)Cc1cc2c(nc1C=O)N(C(=O)Nc1ccc(C#N)cn1)CCC2	< 10	Metabolite_Detected	Metabolite_Detected
COCCOc1cc(NC(=O)N2CCCc3cc(COC)c(C=O)nc32)ncc1C#N	< 10	Metabolite_Detected	Metabolite_Detected
N#Cc1cnc(NC(=O)N2CCCc3cc(CO)c(C=O)nc32)cc1O[C@@H]1CCOC1	< 10	Metabolite_Detected	Metabolite_Detected
CC(C)COc1cc(N2CCC(N(C)C)CC2)ccc1Nc1ncc(C#N)c(N[C@H]2[C@@H](C(N)=O)[C@@H]3C=C[C@H]2C3)n1	< 10	Metabolite_Detected	Metabolite_Detected
C=CC(=O)Nc1ccccc1C(=O)Nc1cc(CCc2cc(OC)cc(OC)c2)[nH]n1	< 10	Metabolite_Detected	Metabolite_Detected
N#Cc1ccc(NC(=O)N2CCCc3cc(N)c(C=O)nc32)nc1	< 10	Metabolite_Detected	Metabolite_Detected
COc1cc2c(nc1C=O)N(C(=O)Nc1ccc(C#N)cn1)CCC2	< 10	Metabolite_Detected	Metabolite_Detected
COCCOc1cc(NC(=O)N2CCCc3cc(Br)c(C=O)nc32)ncc1C#N	< 10	Metabolite_Detected	Metabolite_Detected
